# According to ChEMBL document CHEMBL5543112, “Discovery of CBPD-268 as an Exceptionally Potent and Orally Efficacious CBP/p300 PROTAC Degrader Capable of Achieving Tumor Regression” (J Med Chem, 2024):
# Key:
# [1] = Half life in ICR mouse at 1 mg/kg, iv measured upto 24 hrs by LC/MS-MS analysis; type: ADME, organism-based; conditions: in vivo
# [2] = Drug distribution in Sprague-Dawley rat kidney at 10 mg/kg, po measured at 6 hrs by LC-MS/MS analysis; type: ADME, organism-based; conditions: read-out: Ct
# [3] = Chemical stability of the compound assessed as parent compound remaining measured at 3 hrs; type: physicochemical
# [4] = Toxicity in male BALB/c mouse assessed as effect on body weight loss at 3 to 10 mg/kg, po administered twice a week for 5 to 6 weeks; type: organism-based; conditions: in vivo, dose lower 3 mg/kg, time lower 5 weeks, dose upper 10 mg/kg, time upper 6 weeks
# [5] = Drug distribution in SCID mouse tumor at 3 mg/kg, po measured at 1 hr by LC-MS/MS analysis; type: ADME, organism-based, Neoplasm; conditions: read-out: Ct
# [6] = Drug distribution in Sprague-Dawley rat liver at 3 mg/kg, po measured at 1 hr by LC-MS/MS analysis; type: ADME, organism-based; conditions: read-out: Ct
# [7] = Metabolic stability in dog plasma assessed as half life measured upto 120 mins by LC-MS/MS analysis; type: ADME, cell-free, Canis lupus familiaris
# [8] = Drug distribution in SCID mouse liver at 0.3 mg/kg, po measured at 1 hr by LC-MS/MS analysis; type: ADME, organism-based; conditions: read-out: Ct
# [9] = Plasma protein binding in human by LC-MS analysis; type: ADME, cell-free; conditions: read-out: PPB (converted)
# [10] = Drug concentration in SCID mouse plasma at 1 mg/kg, po measured at 24 hrs by LC-MS/MS analysis; type: ADME, organism-based
# [11] = Toxicity in immune-competent Sprague-Dawley rat assessed as change in white blood cells count at 1 to 10 mg/kg, po administered twice a week for 5 weeks; type: organism-based; conditions: in vivo, 840 h, dose 1-10 mg/kg
# [12] = Drug distribution in SCID mouse liver at 3 mg/kg, po measured at 1 hr by LC-MS/MS analysis; type: ADME, organism-based; conditions: read-out: Ct
# CWR22R [13] = assay: Antitumor activity against human 22Rv1 cells xenografted in SCID mouse assessed as tumor growth inhibition at 0.3 mg/kg, po administered 5 times a week for 3 weeks; type: functional; conditions: 22Rv1, 504 h, read-out: TGI
# [14] = Drug distribution in Sprague-Dawley rat heart at 10 mg/kg, po measured at 6 hrs by LC-MS/MS analysis; type: ADME, organism-based; conditions: read-out: Ct
# [15] = Clearance in Sprague-Dawley rat at 1 mg/kg, iv measured upto 24 hrs by LC/MS-MS analysis; type: ADME, organism-based; conditions: in vivo
# Cytochrome P450 2B6 = molecular target: T1, Cytochrome P450 2B6 (Homo sapiens, UniProt P20813); assay: Inhibition of CYP2B6 (unknown origin) preincubated with compound for 5 mins followed by NADPH addition and measured after 10 mins by LC-MS/MS analysis; type: ADME
# T1 sequence (P20813 whole entry): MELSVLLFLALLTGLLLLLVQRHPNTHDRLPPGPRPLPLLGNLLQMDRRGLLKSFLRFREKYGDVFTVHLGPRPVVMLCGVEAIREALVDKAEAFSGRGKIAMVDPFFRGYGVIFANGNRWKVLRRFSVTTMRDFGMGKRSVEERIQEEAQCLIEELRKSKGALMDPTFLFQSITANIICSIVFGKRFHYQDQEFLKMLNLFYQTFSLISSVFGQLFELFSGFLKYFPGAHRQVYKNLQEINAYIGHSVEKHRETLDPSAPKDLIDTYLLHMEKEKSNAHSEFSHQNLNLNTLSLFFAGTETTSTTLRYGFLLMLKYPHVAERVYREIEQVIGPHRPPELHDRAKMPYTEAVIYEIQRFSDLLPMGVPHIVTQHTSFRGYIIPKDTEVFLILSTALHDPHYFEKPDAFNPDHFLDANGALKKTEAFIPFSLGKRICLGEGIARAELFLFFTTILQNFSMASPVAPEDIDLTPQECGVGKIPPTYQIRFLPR
# [16] = Toxicity in immune-competent Sprague-Dawley rat assessed as change in neutrophil at 1 to 10 mg/kg, po administered twice a week for 5 weeks; type: organism-based; conditions: in vivo, 840 h, dose 1-10 mg/kg
# [17] = Drug distribution in SCID mouse liver at 0.3 mg/kg, po measured at 6 hrs by LC-MS/MS analysis; type: ADME, organism-based; conditions: read-out: Ct
# [18] = Toxicity in immune-competent Sprague-Dawley rat assessed as decrease in glucose level at 10 mg/kg, po administered twice a week for 5 weeks; type: organism-based; conditions: in vivo, 840 h
# [19] = Drug distribution in Sprague-Dawley rat liver at 3 mg/kg, po measured at 24 hrs by LC-MS/MS analysis; type: ADME, organism-based; conditions: read-out: Ct
# Cytochrome P450 3A4 [20] = molecular target: T2, Cytochrome P450 3A4 (Homo sapiens, UniProt P08684); assay: Inhibition of CYP3A4 (unknown origin) using testosterone as substrate preincubated with compound for 5 mins followed by NADPH addition and measured after 20 mins by LC-MS/MS analysis; type: ADME
# T2 sequence (P08684 whole entry): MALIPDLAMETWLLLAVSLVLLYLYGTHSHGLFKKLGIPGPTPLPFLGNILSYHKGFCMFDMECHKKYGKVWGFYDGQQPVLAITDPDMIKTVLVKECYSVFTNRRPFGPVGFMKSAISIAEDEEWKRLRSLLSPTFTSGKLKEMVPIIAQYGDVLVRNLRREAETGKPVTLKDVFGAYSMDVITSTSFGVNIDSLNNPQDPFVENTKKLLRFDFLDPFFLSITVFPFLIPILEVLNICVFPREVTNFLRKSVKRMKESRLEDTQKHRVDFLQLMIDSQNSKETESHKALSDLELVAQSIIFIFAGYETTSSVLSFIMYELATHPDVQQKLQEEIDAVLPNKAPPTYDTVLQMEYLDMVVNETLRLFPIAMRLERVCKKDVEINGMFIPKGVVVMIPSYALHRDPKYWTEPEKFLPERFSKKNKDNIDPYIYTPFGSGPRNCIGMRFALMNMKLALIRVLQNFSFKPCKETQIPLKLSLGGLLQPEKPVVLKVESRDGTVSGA
# [21] = Drug distribution in Sprague-Dawley rat kidney at 3 mg/kg, po measured at 1 hr by LC-MS/MS analysis; type: ADME, organism-based; conditions: read-out: Ct
# [22] = Drug distribution in SCID mouse spleen at 3 mg/kg, po measured at 1 hr by LC-MS/MS analysis; type: ADME, organism-based; conditions: read-out: Ct
# [23] = Toxicity in immune-competent Sprague-Dawley rat assessed as change in blood urea nitrogen level at 1 to 10 mg/kg, po administered twice a week for 5 weeks; type: organism-based; conditions: in vivo, 840 h, dose 1-10 mg/kg
# [24] = Drug concentration in SCID mouse tumor at 1 mg/kg, po measured at 6 hrs by LC-MS/MS analysis; type: ADME, organism-based, Neoplasm; conditions: read-out: Ct
# [25] = Half life in Sprague-Dawley rat at 3 mg/kg, po measured upto 24 hrs by LC/MS-MS analysis; type: ADME, organism-based; conditions: in vivo
# CWR22R [26] = assay: Antitumor activity against human 22Rv1 cells xenografted in SCID mouse assessed as tumor growth inhibition at 1 mg/kg, po administered 3 times a week for 3 weeks; type: functional; conditions: 22Rv1, 504 h, read-out: TGI
# [27] = Drug concentration in SCID mouse plasma at 1 mg/kg, po measured at 6 hrs by LC-MS/MS analysis; type: ADME, organism-based
# [28] = Metabolic stability in rat liver microsome assessed as half life measured upto 60 mins in presence of NADPH by LC-MS/MS analysis; type: ADME; conditions: liver microsomes
# [29] = Drug distribution in SCID mouse liver at 1 mg/kg, po measured at 6 hrs by LC-MS/MS analysis; type: ADME, organism-based; conditions: read-out: Ct
# Cytochrome P450 2D6 = Cytochrome P450 2D6 (Homo sapiens, UniProt P10635); assay: Inhibition of CYP2D6 (unknown origin) preincubated with compound for 5 mins followed by NADPH addition and measured after 20 mins by LC-MS/MS analysis; type: ADME
# Sequence of Cytochrome P450 2D6 (P10635 whole entry): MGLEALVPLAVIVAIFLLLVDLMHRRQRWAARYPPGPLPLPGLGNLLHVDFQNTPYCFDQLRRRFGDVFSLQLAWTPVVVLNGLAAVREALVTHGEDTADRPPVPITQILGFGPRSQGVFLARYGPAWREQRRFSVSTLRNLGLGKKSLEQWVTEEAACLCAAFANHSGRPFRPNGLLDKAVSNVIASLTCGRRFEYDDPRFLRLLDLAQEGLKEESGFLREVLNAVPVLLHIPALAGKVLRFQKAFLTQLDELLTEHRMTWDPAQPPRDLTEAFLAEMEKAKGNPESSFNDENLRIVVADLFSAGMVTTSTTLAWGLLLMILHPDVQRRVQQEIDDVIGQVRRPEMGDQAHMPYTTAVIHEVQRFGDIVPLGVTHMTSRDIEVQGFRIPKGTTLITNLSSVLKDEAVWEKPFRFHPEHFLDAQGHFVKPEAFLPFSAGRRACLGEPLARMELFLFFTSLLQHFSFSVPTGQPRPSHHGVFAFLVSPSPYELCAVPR
# [30] = Metabolic stability in monkey plasma assessed as half life measured upto 120 mins by LC-MS/MS analysis; type: ADME, cell-free, Macaca mulatta; conditions: rhesus monkey
# [31] = Drug distribution in Sprague-Dawley rat spleen at 10 mg/kg, po measured at 24 hrs by LC-MS/MS analysis; type: ADME, organism-based; conditions: read-out: Ct
# [32] = Toxicity in immune-competent Sprague-Dawley rat assessed as change in total protein level at 1 to 10 mg/kg, po administered twice a week for 5 weeks; type: organism-based; conditions: in vivo, 840 h, dose 1-10 mg/kg
# [33] = Drug distribution in SCID mouse spleen at 1 mg/kg, po measured at 24 hrs by LC-MS/MS analysis; type: ADME, organism-based; conditions: read-out: Ct
# Cytochrome P450 3A4 [34] = molecular target: T2, Cytochrome P450 3A4; assay: Inhibition of CYP3A4 (unknown origin) using midazolam as substrate preincubated with compound for 5 mins followed by NADPH addition and measured after 20 mins by LC-MS/MS analysis; type: ADME
structure (smiles),measurement,setting,value
CC(=O)N1CCc2c(c(N3CCCc4cc(-c5cnn(C)c5)c(C(F)F)cc43)nn2[C@H]2CC[C@H](CN3Cc4cc5c(cc4C3)C(=O)N(C3CCC(=O)NC3=O)C5=O)CC2)C1 (stereo partly specified),t1/2,[1],3.4 h
same,concentration at 6 h,[2],224 ng/g
same,Stability,[3],Stable
same,Activity,[4],Non-Toxic
same,concentration at 1 h,[5],249 ng/g
same,concentration at 1 h,[6],978 ng/g
same,half-life,[7],1.3 h
same,concentration at 1 h,[8],323 ng/mL
same,fraction unbound,[9],0.009
same,concentration at 24 h,[10],2.8 ng/mL
same,Activity,[11],Non-Toxic
same,concentration at 1 h,[12],3300 ng/mL
same,inhibition in vivo at 0.3 mg/kg,CWR22R [13],56%
same,concentration at 6 h,[14],83 ng/g
same,clearance,[15],34.6 mL/min/kg
same,IC50,Cytochrome P450 2B6,> 10 µM
same,Activity,[16],Non-Toxic
same,concentration at 6 h,[17],86.8 ng/mL
same,Activity,[18],Non-Toxic
same,concentration at 24 h,[19],8.4 ng/g
same,IC50,Cytochrome P450 3A4 [20],> 10 µM
same,concentration at 1 h,[21],514 ng/g
same,concentration at 1 h,[22],937 ng/mL
same,Activity,[23],Non-Toxic
same,concentration at 6 h,[24],12.6 ng/g
same,half-life,[25],1.3 h
same,inhibition in vivo at 1 mg/kg,CWR22R [26],54%
same,concentration at 6 h,[27],14.1 ng/mL
same,half-life,[28],1.08 h
same,concentration at 6 h,[29],301 ng/mL
same,IC50,Cytochrome P450 2D6,> 10 µM
same,half-life,[30],> 2 h
same,concentration at 24 h,[31],12.6 ng/g
same,Activity,[32],Non-Toxic
same,concentration at 24 h,[33],2.8 ng/mL
same,IC50,Cytochrome P450 3A4 [34],> 10 µM
